Measured values taken from patent US8846914B2, “Compositions to effect neuronal growth” (Neuralstem, Inc., priority 2003, dated 2014).
Read-outs that look alike come from different tables or passages of the source.

What was measured:
[1] = system: Differentiating human hippocampal stem cells; assay: Neurogenesis dose-response profile; type: cell-based; conditions: for activity at 0.3 µM: @300 nM; for activity at 30 µM: @30000 nM; for activity at 10 µM: @10000 nM; for activity at 1 µM: @1000 nM; for activity at 3 µM: @3000 nM; for activity at 0.001 µM: @1 nM
Method: FIG. 4 is a line graph illustrating an example of a neurogenesis dose-response profile of selected compounds. Differentiating human hippocampal stem cells were treated for seven days with varying concentrations of “primary hits”. Subsequently, the cells were fixed, stained with anti-beta tubulin antibody, and positive cells were quantified by Array Scan II. Shown are the number of neurons after each treatment normalized against the no-compound control.
In another in vitro assay, compounds are tested as above at varying concentrations to obtain a dose-response curve and EC50 values (effective concentration of the compound which produces 50% of the maximum possible response for that compound).
Primary dose-response profiles and secondary functional assays are used to further eliminate compounds from the primary screen based on a lack of dose-dependent effect on neurogenesis, indicated by lack of linearity of dose-response, and in vitro neurotoxicity. The dose-response curve measures neurogenesis over a concentration range of 100 pM to 100 μM. […] Table II contains the summary of EC50 of each compound tested.

[2] = system: human hippocampal stem cells; assay: Neurogenesis, TuJ1 immunostaining / Hoechst (primary screen); type: cell-based; conditions: seven days of compound treatment; for Neuron Number (% of Control): TuJ1+ neurons per area; for Neuron Ratio (% of Control): ratio neuron:total cells (TuJ1/Hoechst)
From the text: FIG. 2 is a bar graph illustrating an example of a neurogenesis profile of compounds selected from primary screening. After seven days of compound treatment, the cells were stained with the neuron-specific anti-tubulin IIIb antibody. TuJ1, for neurons and Hoechst for all cell nuclei. Shown are the relative ratio of neuron: total cells for each compound over the vehicle control in percentage. Typical ratio for vehicle control is 40-50% neurons. The ratio can change by either increased differentiation of stem cells to neurons, decreased proliferation of astrocytes, or increased proliferation of neuronal progenitors.
FIG. 3 is a bar graph illustrating an example of a neurogenesis profile of compounds selected from primary screening. After seven days of compound treatment, the cells were stained with TuJ1 for neurons. The number of TuJ1+ neurons per area was quantified and expressed as a relative value to the vehicle treated control.
The final neuron number is detected by immunostaining of the culture with antibodies against neurons and is quantified by counting of the immunopositive neurons and/or by measuring the staining intensity. Therefore, after seven days of compound treatment, the cells are stained with the neuron-specific anti-tubulin IIIb antibody, TuJ1, for neurons and Hoechst for all cell nuclei. The number of TuJ1+ neurons per area is quantified and expressed as a value relative to the vehicle-treated control of Hoechst-stained cells. In this regard, the medium is removed from the wells by decanting and blotting the plates on paper towels. The cells are then fixed in 100 μl of 4% paraformaldehyde per well for thirty minutes at room temperature. The cells are washed three times with 400 μl per well of phosphate-buffered saline (PBS) at pH 7.5 for approximately ten minutes per wash. The plates are then stored at 4° C. in PBS or used immediately for staining.
The cells are subsequently stained with antibodies against neuron-specific antigens according to standard procedures. The staining process includes decanting the PBS and blocking the cells with 100 μl of 5% Normal Goat Serum (NGS) in PBS for one hour at room temperature. The NGS/PBS is decanted and the plates are blotted on a paper towel. The cells are then permeabilized with 0.1% Triton X-100 in PBS for 30 minutes at room temperature.
Typical neuron-specific antigens include Type III-beta tubulin and MAP-2c. The total cell number in each well was quantified by staining the cultures with a nuclear dye such as DAPI or Hoechst according to standard procedures. Therefore, once the cells are permeabilized, 20 μl of TuJ1, monoclonal antibody against neuronal class 111 β-tubulin (CoVance (BabCo) MMS-435P) and 32 μl of anti-GFAP polyclonal (DAKO Z0334) are added to and mixed of PBS with 5% NGS. Final dilutions of TuJ1 and anti-GFAP are 1:400 and 1:250, respectively. 90 μl of the antibody solution is added to each well except two eleventh column. 90 μl of PBS/5% NGS is added to the eleventh column and no cells are added to the twelfth column. The plate(s) are sealed with parafilm and incubated at 4° C. overnight.
After incubating the cells overnight, the antibody solution is decanted and 200 μl of PBS/0.1% Triton X-100 is added to the wells. The plate(s) are placed on a shaker and incubated at room temperature with gentle shaking for ten minutes. The cells are again washed with the PBS/Triton X-100 solution another two times.
Following staining with TuJ1 and anti-GFAP, 20 μl of Alexa Fluor 488 labeled goat anti-moose IgG (H+L) (Molecular Probes A-11001) and 100 μl of LRSC-IgG, goat anti-rabbit (Jackson Immune 111-295-144) is added and mixed with 10 ml of PBS/5% NGS. 100 μl of the resulting antibody solution is added to each well. The plate(s) are covered with foil and incubated with gentle shaking for up to one hour at room temperature. The cells are again washed as described above with PBS and an Triton X-100. […]

[3] = Homo sapiens, Neuron, 168 h, normalized against no-compound control, read-out: Neuron# Eff
[4] = Homo sapiens, Neuron, 168 h, seven days, 100 pM to 100 μM
[5] = Homo sapiens, Neuron, 168 h, read-out: % Neuron Ratio Eff

Structure (SMILES): CCCCNc1c(C2CCN(C(=O)CN(CC(C)C)S(C)(=O)=O)CC2)nc2cnccn12 [NSI-106]
- activity at 0.1 µM ([1]; Homo sapiens, Neuron, 168 h, @100 nM, read-out: % Neuron Ratio Eff): 165%
- activity at 0.3 µM [1, 3]: 157%
- EC50 [1, 4]: 0.07 nM
- Neuron Number (% of Control) [2]: 77 ± 12 % of Control
- Neuron Ratio (% of Control) [2]: 92 ± 6 % of Control

Structure (SMILES): CS(=O)(=O)N1CCCCC1C(=O)NCc1ccc(Nc2c(C3CC3)nc3ccccn23)cc1 (stereo not drawn) [NSI-127]
- activity at 0.01 µM ([1]; Homo sapiens, Neuron, 168 h, @10 nM, read-out: % Neuron Ratio Eff): 114%
- activity at 30 µM [1, 3]: 137%
- EC50 [1, 4]: 1.5 nM
- Neuron Number (% of Control) [2]: 81 ± 13 % of Control
- Neuron Ratio (% of Control) [2]: 104 ± 8 % of Control

Structure (SMILES): COc1ccc(CCNc2ncc(C(N)=O)c(NC3CC3)n2)cc1OC [NSI-130]
- activity at 10 µM [1, 3]: 202%
- activity at 30 µM [1, 5]: 144%
- EC50 [1, 4]: 2160 nM
- Neuron Number (% of Control) [2]: 124 ± 8 % of Control
- Neuron Ratio (% of Control) [2]: 128 ± 4 % of Control

Structure (SMILES): CCCNc1ncc(C(N)=O)c(NC2CCCC2)n1 [NSI-137]
- activity at 30 µM [1, 3]: 145%
- activity at 30 µM [1, 5]: 126%
- EC50 [1, 4]: > 1000 nM
- Neuron Number (% of Control) [2]: 151 ± 40 % of Control
- Neuron Ratio (% of Control) [2]: 116 ± 8 % of Control

Structure (SMILES): O=C(c1cccnc1N1CCNCC1)N1CCN(Cc2ccncc2)CC1 [NSI-142]
- activity at 30 µM [1, 3]: 175%
- activity at 30 µM [1, 5]: 123%
- EC50 [1, 4]: 0.001 nM
- Neuron Number (% of Control) [2]: 152 ± 22 % of Control
- Neuron Ratio (% of Control) [2]: 125 ± 15 % of Control

Structure (SMILES): O=C(NC1CCN(Cc2ccccc2)CC1)c1cccnc1N1CCNCC1 [NSI-143]
- activity at 30 µM [1, 3]: 115%
- activity at 30 µM [1, 5]: 112%
- EC50 [1, 4]: 4.8 nM
- Neuron Number (% of Control) [2]: 143 ± 6 % of Control
- Neuron Ratio (% of Control) [2]: 130 ± 14 % of Control

Structure (SMILES): NC(=O)c1cnc(NCc2ccc(Cl)cc2)nc1NCC1CCCCC1 [NSI-144]
- activity at 0.3 µM [1, 3]: 186%
- activity at 0.3 µM [1, 5]: 138%
- EC50 [1, 4]: 13.5 nM
- Neuron Number (% of Control) [2]: 179 ± 29 % of Control
- Neuron Ratio (% of Control) [2]: 137 ± 8 % of Control

Structure (SMILES): CCCCNc1c(C2CCN(C(=O)c3ccc(C#N)cc3)CC2)nc2ccccn12 [NSI-149]
- activity at 1 µM [1, 3]: 124%
- activity at 1 µM [1, 5]: 111%
- EC50 [1, 4]: < 0.1 nM
- Neuron Number (% of Control) [2]: 113 ± 16 % of Control
- Neuron Ratio (% of Control) [2]: 100 ± 6 % of Control

Structure (SMILES): C=CCNC(=O)c1cccnc1NCc1ccccc1OC [NSI-150]
- activity at 3 µM [1, 3]: 227%
- activity at 30 µM [1, 5]: 112%
- EC50 [1, 4]: 85 nM
- Neuron Number (% of Control) [2]: 107 ± 29 % of Control
- Neuron Ratio (% of Control) [2]: 99 ± 6 % of Control

Structure (SMILES): CC(C)(C)OC(=O)NCCNC(=O)c1cccnc1NCC1CCCCC1 [NSI-157]
- activity at 10 µM [1, 3]: 113%
- activity at 30 µM [1, 5]: 146%
- EC50 [1, 4]: > 1000 nM
- Neuron Number (% of Control) [2]: 135 ± 15 % of Control
- Neuron Ratio (% of Control) [2]: 142 ± 6 % of Control

Structure (SMILES): NC(=O)C1CCCN1C(=O)c1cccnc1NCC1CCCCC1 (stereo not drawn) [NSI-158]
- activity at 0.3 µM [1, 3]: 145%
- activity at 3 µM [1, 5]: 106%
- EC50 [1, 4]: 0.2 nM
- Neuron Number (% of Control) [2]: 93 ± 17 % of Control
- Neuron Ratio (% of Control) [2]: 106 ± 9 % of Control

Structure (SMILES): O=C(NCc1nc2ccccn2c1NCC1CCCO1)Oc1ccccc1 (stereo not drawn) [NSI-182]
- activity at 0.3 µM [1, 3]: 123%
- activity at 10 µM [1, 5]: 112%
- EC50 [1, 4]: 0.1 nM
- Neuron Number (% of Control) [2]: 95 ± 9 % of Control
- Neuron Ratio (% of Control) [2]: 125 ± 10 % of Control

Structure (SMILES): O=C(COc1ccccc1)NCc1nc2ccccn2c1NCC1CCCO1 (stereo not drawn) [NSI-183]
- activity at 0.001 µM [1, 5]: 112%
- activity at 0.3 µM [1, 3]: 140%
- EC50 [1, 4]: 0.05 nM
- % Neuron Ratio EC50 ([1]; seven days, 100 pM to 100 μM): No Curve
- Neuron Number (% of Control) [2]: 128 ± 13 % of Control
- Neuron Ratio (% of Control) [2]: 131 ± 4 % of Control

Structure (SMILES): CS(=O)(=O)N(CC(=O)NCc1nc2ccccn2c1NCc1ccccc1)c1ccccc1 [NSI-185]
- activity at 3 µM [1, 3]: 132%
- activity at 30 µM [1, 5]: 112%
- EC50 [1, 4]: 786 nM
- Neuron Number (% of Control) [2]: 141 ± 70 % of Control
- Neuron Ratio (% of Control) [2]: 135 ± 15 % of Control

Structure (SMILES): CC(C)CCNc1ncccc1C(=O)N1CCN(Cc2ccccc2)CC1 [NSI-189]
- activity at 30 µM [1, 3]: 165%
- activity at 30 µM [1, 5]: 141%
- EC50 [1, 4]: 253 nM
- Neuron Number (% of Control) [2]: 102 ± 41 % of Control
- Neuron Ratio (% of Control) [2]: 130 ± 19 % of Control

Structure (SMILES): CCN(CCNC(=O)c1cccnc1NCCC(C)C)Cc1cccnc1 [NSI-190]
- activity at 0.001 µM [1, 5]: 128%
- activity at 0.3 µM [1, 3]: 165%
- EC50 [1, 4]: 13 nM
- Neuron Number (% of Control) [2]: 130 ± 22 % of Control
- Neuron Ratio (% of Control) [2]: 127 ± 9 % of Control
